In assay [1] the target is Neurotensin receptor type 1 (Homo sapiens, UniProt P30989). The format is functional.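 Further: Image-based confirmatory dose-response assay measuring agonist activity at NTR1; NTR1-expressing U2OS osteosarcoma cells imaged for beta-arrestin GFP spot formation; agonist potency where compounds increase beta-arrestin recruitment.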
Another assay concerns the target Cytochrome P450 2C19 (Homo sapiens, UniProt P33261). The experiment in a line: Cytochrome panel assay with activity outcomes. Panel member name: p450-cyp2c19 Compounds with AC50 equal or less than 10 uM are considered active. To be noted: read-out: AC50. The class given is functional.
Another assay deals with T1, Cytochrome P450 1A2 (Homo sapiens, UniProt P05177).
T1 sequence (P05177 whole entry): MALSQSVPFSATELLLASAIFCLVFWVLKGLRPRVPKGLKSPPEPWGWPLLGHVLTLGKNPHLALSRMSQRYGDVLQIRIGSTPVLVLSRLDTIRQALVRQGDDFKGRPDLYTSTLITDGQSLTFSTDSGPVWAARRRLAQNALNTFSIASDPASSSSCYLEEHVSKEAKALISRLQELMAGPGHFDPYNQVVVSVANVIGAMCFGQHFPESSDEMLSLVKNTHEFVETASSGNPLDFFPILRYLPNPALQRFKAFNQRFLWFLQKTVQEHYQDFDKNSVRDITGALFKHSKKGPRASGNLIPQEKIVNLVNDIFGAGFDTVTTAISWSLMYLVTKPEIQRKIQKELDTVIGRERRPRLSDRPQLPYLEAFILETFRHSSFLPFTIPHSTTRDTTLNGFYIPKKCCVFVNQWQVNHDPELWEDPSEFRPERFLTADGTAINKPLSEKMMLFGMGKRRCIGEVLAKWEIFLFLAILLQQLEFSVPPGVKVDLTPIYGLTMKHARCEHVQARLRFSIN

The target in the next assay is Cytochrome P450 2C9 (Homo sapiens, UniProt P11712).
Sequence of Cytochrome P450 2C9 (P11712 whole entry): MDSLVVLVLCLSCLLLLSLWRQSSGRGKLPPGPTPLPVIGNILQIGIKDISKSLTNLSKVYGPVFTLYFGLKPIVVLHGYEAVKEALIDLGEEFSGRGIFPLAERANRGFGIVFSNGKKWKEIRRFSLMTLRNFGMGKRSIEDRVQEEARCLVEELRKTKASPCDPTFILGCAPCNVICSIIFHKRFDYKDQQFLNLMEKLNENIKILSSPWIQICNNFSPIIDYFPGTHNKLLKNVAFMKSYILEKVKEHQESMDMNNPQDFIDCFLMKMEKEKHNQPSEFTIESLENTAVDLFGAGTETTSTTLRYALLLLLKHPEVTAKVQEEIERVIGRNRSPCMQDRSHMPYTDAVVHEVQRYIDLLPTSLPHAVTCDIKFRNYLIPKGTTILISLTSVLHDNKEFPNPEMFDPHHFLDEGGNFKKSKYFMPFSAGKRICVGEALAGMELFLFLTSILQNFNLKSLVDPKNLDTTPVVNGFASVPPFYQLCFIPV
Another assay addresses T2, Mucolipin-3 (Homo sapiens, UniProt Q8TDD5).
T2 sequence (Q8TDD5 whole entry): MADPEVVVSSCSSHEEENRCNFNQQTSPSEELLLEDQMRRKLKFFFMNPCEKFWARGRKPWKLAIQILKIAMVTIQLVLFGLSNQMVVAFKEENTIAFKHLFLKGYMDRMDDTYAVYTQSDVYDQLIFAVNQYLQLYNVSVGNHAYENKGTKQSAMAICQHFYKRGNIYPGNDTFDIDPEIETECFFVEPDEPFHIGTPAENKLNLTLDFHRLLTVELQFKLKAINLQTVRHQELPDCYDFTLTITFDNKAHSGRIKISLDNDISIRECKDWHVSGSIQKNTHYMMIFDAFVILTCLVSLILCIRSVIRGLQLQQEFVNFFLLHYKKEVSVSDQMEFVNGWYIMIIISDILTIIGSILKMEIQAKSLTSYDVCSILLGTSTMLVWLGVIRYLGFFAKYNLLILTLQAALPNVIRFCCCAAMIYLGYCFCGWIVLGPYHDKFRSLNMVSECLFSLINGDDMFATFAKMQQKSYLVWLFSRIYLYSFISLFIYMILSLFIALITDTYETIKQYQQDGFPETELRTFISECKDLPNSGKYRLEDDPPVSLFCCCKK
Kind of assay: Dose response cell-based high-throughput screening assay for agonists of the transient receptor potential channel ML3 (TRPML3). [Related pubchem assays: 1526, 1424, 1448 ]. The class given is functional.

The next assay has as its target Ion channel NompC (Danio rerio, UniProt Q7T1G6). Kind of assay: Fluorescence counterscreen assay for TRPML3 agonists: dose response cell-based high-throughput screening assay to identify agonists of the transient receptor potential channel N1 (TRPN1). [Related pubchem assays: 1526, 1424, 1448 ]. The class given is functional. A general note: A counterscreen serves to expose hits that act by an unwanted route or on another target.

The nature of assay [2]: inhibitors of intracellular T. cruzi replication, confirmation, NIH3T3 host cells, beta-gal luminescence (AID 2044).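 Further: intracellular parasites grown in NIH/3T3 mouse fibroblasts as host cells; luminescent beta-galactosidase reporter signal from transgenic T. cruzi replicating inside host cells; inhibitors lower the luminescence signal.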 The class given is functional, cell-based.
Assay [3] in a line: cytotoxicity toward NIH3T3 fibroblasts, dose response, counter-screen, cell-based, ATP luminescence, mouse fibroblasts (AID 2010).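 Further: cells exposed to compound for about 90 hours before reading.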 The format is functional.
Assay [4] deals with T3, Luciferin 4-monooxygenase (Photinus pyralis, UniProt P08659). Kind of assay: Counter Screen for Luciferase-based Assay Positives. [Related pubchem assays: 620, 618, 411 ].
T3 sequence (P08659 whole entry): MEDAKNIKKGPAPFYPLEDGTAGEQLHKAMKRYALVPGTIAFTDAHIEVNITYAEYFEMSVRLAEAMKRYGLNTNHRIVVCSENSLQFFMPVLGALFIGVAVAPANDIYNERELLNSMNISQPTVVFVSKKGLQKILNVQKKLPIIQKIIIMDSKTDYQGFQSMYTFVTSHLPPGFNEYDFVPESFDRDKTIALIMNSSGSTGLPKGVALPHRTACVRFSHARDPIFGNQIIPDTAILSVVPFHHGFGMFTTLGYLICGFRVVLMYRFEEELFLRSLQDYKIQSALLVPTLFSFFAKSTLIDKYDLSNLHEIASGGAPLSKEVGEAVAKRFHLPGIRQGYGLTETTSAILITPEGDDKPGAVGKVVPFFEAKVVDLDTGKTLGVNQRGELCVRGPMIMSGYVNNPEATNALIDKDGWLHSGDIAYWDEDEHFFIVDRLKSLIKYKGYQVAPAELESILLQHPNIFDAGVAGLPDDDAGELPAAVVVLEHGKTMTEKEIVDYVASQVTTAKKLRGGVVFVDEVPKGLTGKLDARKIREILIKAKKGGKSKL
The subject of a further assay is HT-1080. The experiment in a line: cytotoxicity in HT1080 fibrosarcoma cells, cell-based, fluorescence readout (AID 620). The class given is functional. Conditions: Homo sapiens.
A short description of assay [5]: A Cell Based Secondary Assay To Explore Cytotoxicity of Compounds that Sensitize Mycobacterium Tuberculosis to Beta-Lactam Antibiotics. The format is functional.
In assay [6] the target is NACHT, LRR and PYD domains-containing protein 3 (Homo sapiens, UniProt Q96P20). Kind of assay: NALP3 inhibitors in yeast, dose response, luminescent (AID 488799). The format is functional.
Sequence of NACHT, LRR and PYD domains-containing protein 3 (Q96P20 whole entry, the tested form may be a part): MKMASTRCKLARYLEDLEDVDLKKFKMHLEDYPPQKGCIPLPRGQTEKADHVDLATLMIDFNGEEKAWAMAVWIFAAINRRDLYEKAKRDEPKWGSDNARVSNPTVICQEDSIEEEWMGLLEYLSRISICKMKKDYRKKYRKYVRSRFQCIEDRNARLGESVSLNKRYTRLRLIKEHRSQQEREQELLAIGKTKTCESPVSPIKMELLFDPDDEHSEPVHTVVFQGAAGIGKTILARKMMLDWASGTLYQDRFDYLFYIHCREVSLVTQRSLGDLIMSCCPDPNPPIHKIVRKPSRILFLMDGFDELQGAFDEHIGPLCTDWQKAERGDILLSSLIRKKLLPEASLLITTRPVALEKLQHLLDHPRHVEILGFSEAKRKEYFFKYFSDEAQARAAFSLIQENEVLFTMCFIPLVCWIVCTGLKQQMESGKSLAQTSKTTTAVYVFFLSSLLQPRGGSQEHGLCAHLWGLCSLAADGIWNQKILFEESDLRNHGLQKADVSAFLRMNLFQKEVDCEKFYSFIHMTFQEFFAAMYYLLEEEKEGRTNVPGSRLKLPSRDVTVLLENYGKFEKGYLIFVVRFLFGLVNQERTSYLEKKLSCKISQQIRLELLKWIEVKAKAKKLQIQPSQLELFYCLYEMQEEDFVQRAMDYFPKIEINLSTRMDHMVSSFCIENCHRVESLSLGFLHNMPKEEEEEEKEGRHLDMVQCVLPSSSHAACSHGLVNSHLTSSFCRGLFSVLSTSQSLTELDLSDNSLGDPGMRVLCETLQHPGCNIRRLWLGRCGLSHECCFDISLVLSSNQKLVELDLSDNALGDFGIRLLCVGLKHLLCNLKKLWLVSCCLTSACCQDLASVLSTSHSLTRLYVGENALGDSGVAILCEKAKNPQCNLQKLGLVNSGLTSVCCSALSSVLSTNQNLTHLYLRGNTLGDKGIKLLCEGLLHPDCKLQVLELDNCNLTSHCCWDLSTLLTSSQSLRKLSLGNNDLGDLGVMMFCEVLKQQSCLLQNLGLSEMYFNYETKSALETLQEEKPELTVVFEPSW
Assay [7] concerns the target Eukaryotic translation initiation factor 4H (Homo sapiens, UniProt Q15056). The experiment in a line: eIF4H inhibition in translation initiation, SAR follow-up (AID 435011). The format is functional.
The target in assay [8] is Polyadenylate-binding protein 1 (Homo sapiens, UniProt P11940). Kind of assay: PABP inhibition in translation initiation, SAR follow-up (AID 435018). The class given is functional.
Sequence of Polyadenylate-binding protein 1 (P11940 whole entry): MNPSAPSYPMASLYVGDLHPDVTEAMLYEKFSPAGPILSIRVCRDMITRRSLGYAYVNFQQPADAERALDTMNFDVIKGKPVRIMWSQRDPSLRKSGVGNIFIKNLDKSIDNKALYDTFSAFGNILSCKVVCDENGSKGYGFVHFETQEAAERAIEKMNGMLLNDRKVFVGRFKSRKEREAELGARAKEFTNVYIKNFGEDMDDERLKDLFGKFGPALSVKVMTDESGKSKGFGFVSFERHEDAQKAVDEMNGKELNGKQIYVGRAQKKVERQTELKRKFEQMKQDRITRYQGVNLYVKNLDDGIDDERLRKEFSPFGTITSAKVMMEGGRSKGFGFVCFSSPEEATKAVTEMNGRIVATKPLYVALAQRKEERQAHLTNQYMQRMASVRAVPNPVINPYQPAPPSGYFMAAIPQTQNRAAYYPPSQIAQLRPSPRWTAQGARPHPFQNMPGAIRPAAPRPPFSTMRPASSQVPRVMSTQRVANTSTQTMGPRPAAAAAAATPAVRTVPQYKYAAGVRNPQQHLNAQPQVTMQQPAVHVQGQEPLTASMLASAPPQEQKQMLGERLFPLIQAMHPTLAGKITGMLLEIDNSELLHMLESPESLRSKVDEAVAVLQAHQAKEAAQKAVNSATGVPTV
The nature of assay [9]: microbe, parasite or virus in culture. The format is functional. Conditions: Mycobacterium tuberculosis.
The next assay addresses Nonstructural protein 1 (Influenza A virus, UniProt Q194T2). The format is functional, Influenza A virus (A/California/07/2009(H1N1)).
In assay [10] the target is T3, Luciferin 4-monooxygenase. Kind of assay: firefly luciferase enzyme inhibitors, dose response, biochemical, luminescence (AID 1891).
A short description of assay [11]: Luminescence Cell-Based Dose Confirmation HTS to Identify Inhibitors of Platelet Dense Granule Release. [Related pubchem assays: 1663 (Primary HTS), 1678 (Summary of Project)]. The class given is functional.

The source made the active and inactive calls.

Sequence of Ion channel NompC (Q7T1G6 whole entry): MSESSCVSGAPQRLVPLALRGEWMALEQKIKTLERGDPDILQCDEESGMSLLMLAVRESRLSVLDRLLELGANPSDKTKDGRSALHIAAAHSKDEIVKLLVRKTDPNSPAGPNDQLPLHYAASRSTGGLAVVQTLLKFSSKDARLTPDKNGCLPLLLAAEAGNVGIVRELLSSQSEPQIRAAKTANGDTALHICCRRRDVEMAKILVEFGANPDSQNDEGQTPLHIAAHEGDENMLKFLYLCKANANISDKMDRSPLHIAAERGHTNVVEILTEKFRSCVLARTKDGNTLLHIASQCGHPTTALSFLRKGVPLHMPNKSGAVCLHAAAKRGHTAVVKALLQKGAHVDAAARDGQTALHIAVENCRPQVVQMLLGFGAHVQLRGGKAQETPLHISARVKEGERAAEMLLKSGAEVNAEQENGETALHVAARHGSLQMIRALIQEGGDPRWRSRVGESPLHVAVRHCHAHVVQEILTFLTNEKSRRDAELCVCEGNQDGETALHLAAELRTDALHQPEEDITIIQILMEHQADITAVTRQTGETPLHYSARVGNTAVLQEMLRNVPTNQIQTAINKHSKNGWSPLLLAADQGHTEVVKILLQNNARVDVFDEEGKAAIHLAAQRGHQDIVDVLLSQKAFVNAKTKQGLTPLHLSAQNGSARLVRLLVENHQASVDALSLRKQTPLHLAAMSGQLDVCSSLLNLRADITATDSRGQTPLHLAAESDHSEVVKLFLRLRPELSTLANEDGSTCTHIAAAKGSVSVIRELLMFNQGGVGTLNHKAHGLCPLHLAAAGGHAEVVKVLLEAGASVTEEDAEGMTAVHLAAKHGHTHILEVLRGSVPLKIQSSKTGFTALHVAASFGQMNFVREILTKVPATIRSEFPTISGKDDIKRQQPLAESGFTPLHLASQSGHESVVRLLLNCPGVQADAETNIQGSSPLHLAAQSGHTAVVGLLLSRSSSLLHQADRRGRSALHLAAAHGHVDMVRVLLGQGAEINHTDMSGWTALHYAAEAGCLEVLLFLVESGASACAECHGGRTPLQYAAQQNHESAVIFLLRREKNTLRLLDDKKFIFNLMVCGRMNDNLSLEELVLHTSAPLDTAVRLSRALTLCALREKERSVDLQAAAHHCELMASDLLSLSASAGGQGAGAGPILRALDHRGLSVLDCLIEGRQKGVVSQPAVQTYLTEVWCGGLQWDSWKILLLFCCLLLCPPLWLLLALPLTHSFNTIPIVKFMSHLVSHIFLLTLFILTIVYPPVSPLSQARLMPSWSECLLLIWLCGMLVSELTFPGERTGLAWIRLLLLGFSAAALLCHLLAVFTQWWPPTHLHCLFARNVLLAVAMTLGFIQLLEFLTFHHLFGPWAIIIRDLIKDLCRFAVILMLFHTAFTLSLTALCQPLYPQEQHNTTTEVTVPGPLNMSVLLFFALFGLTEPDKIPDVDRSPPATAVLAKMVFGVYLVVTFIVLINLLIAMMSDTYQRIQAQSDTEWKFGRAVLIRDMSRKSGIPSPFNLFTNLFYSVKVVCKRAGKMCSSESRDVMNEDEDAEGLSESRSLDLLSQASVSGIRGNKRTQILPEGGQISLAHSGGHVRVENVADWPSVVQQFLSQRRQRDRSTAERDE
Sequence of Nonstructural protein 1 (Q194T2 whole entry): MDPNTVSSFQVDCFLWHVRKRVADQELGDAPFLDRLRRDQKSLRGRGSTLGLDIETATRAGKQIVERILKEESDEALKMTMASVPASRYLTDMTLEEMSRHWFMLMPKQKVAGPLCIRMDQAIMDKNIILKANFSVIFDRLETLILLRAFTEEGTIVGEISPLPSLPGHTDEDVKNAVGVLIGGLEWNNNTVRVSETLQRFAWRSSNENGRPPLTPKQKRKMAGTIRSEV

The term EC50 denotes the concentration that produces a half-maximal response. In general, AC50 refers to the midpoint of the concentration-response curve, whichever way the signal moves. Take `Cc1cccc(N2C(=O)NC(=O)/C(=C\c3cnn(-c4ccccc4)c3)C2=O)c1`: the EC50 in assay [1] was 13 µM (active). Besides, the AC50 at Cytochrome P450 2C19 was 39.8 µM (inconclusive); at Cytochrome P450 1A2 it was 25.1 µM (inconclusive); on Cytochrome P450 2C9, 39.8 µM (inconclusive).

As to `COc1ccccc1N(C)S(=O)(=O)c1ccc(Cl)c(C(=O)OCc2c(C)noc2C)c1`, the values for the EC50 at Mucolipin-3 and at Ion channel NompC were 3.01 µM (active) and > 29.9 µM (not active), respectively.

Consider `CCOc1ccc(S(=O)(=O)NC(C)(C)C)cc1-c1nc(O)c2c(n1)c(C(C)(C)C)nn2C`, for which the EC50 was 1.26 µM (active) in assay [2], 0.781 µM (active) at Mucolipin-3, 8.45 µM (active) in [3] and > 29.9 µM (not active) on Ion channel NompC.

With `Cc1ccc(OCc2nc(-c3ccccn3)no2)c(Br)c1`, the results for the EC50 (in [4]; with HT-1080) were < 0.2 µM (active) and > 50 µM (not active), respectively.

Turning to `Cc1ccc(N=C(S)Nc2ncccc2C)c(C)c1`, the CC50 in assay [5] is > 40 µM (active).

Turning to `COc1ccc(N(CC(=O)N2CCCCC2)S(=O)(=O)c2ccccc2)c(OC)c1`, the figures for the EC50 on Mucolipin-3 and on Ion channel NompC were 1.84 µM (active) and > 9.99 µM (not active), respectively.

Broadly, the IC50 is the point on the concentration scale where inhibition reaches its midpoint. Take `CCC1Nc2ncnc(N3CCN(c4ccccn4)CC3)c2N(Cc2ccc(Cl)cc2)C1=O` (stereo not given): the IC50 in assay [6] is 3.16 µM (active).

In the case of `OCCCn1c(C2CCCN2c2nc(-c3ccc(Cl)cc3)cs2)nc2cc(Cl)c(Cl)cc21` (stereo not given), the CC50 in [5] was > 40 µM (active).

`Cc1ccc(C)c(NC(=O)C2CCN(C(=O)c3cccs3)CC2)c1`: the IC50 in assay [7] and in assay [8] was > 100 µM (inactive) each time.

In the case of `COc1cc([N+](=O)[O-])ccc1NC(=O)COC(=O)c1ccc(N2CCCC2=O)cc1`, the IC50 in [7] and in assay [8] was > 100 µM (inactive) each time.

Regarding `O=C(Nc1ccc(Br)cc1)C1CCCN1C(=O)Oc1ccccc1` (stereo not given), the IC50 in [7] and in [8] was > 100 µM (inactive) throughout.

`C=CCc1c(C)nc(C)nc1N/N=C/c1ccccc1O`: in [9], the CC50 was > 40 µM (active). The IC50 was 45.5 µM (active) in [6] and 18.4 µM (active) at Nonstructural protein 1.

`COc1ccc(C(=O)/C=C/Nc2cccc(O)c2)cc1`: the EC50 was 0.25 µM (active) in assay [4], 0.793 µM (active) in assay [10], 5.26 µM (active) in [11] and > 50 µM (not active) in the assay with HT-1080.

The values above are taken from ChEMBL document CHEMBL1201862, “PubChem BioAssay data set” (2004).
